Experimental findings from patent US7982053B2, “Peptide deformylase inhibitors” (GlaxoSmithKline LLC, priority 2005, dated 2011) are described below.

Structures are written as SMILES.

The test system of the test is Mycobacterium tuberculosis H37Rv. The experiment in a line: Mycobacterium tuberculosis Susceptibility Assay (Resazurin). It counts as cell-based. To be noted: 7H9+ADC medium, 37° C., read-out: MIC (minimal inhibitory concentration). (In general: Alamar Blue is a resazurin reagent that responds to reducing activity.)
As to `Cc1cc(C(=O)NC(=O)[C@@H]2CCCN2C(=O)[C@H](CC2CCCC2)CN(O)C=O)nn1C` [Example 7, 1-((2R)-3-cyclopentyl-2-{[formyl(hydroxy)amino]methyl}propanoyl)-N-[(1,5-dimethyl-1H-pyrazol-3-yl)carbonyl]-L-prolinamide], the MIC is no more than 32 µg/mL.

Consider `O=CN(O)C[C@@H](CC1CCCC1)C(=O)N1CCC[C@H]1C(=O)NC(=O)c1ccccc1F` [Example 10, 1-((2R)-3-cyclopentyl-2-{[formyl(hydroxy)amino]methyl}propanoyl)-N-[(2-fluorophenyl)carbonyl]-L-prolinamide], for which the MIC is no more than 32 µg/mL.

As for `O=CN(O)C[C@@H](CC1CCCC1)C(=O)N1CCC[C@H]1C(=O)NC(=O)c1cccc(F)c1` [Example 11, 1-((2R)-3-cyclopentyl-2-{[formyl(hydroxy)amino]methyl}propanoyl)-N-[(3-fluorophenyl)carbonyl]-L-prolinamide], the MIC was no more than 32 µg/mL.

As for `O=CN(O)C[C@@H](CC1CCCC1)C(=O)N1CCC[C@H]1C(=O)NC(=O)c1ccc(N2CCOCC2)nc1` [Example 20, N-[1-((2R)-3-cyclopentyl-2-{[formyl(hydroxy)amino]methyl}propanoyl)-L-prolyl]-6-(4-morpholinyl)-3-pyridinecarboxamide], the MIC is no more than 32 µg/mL.

`O=CN(O)C[C@@H](CC1CCCC1)C(=O)N1CCC[C@H]1C(=O)NC(=O)c1cc(F)ccc1F` [Example 15, 1-((2R)-3-cyclopentyl-2-{[formyl(hydroxy)amino]methyl}propanoyl)-N-[(2,5-difluorophenyl)carbonyl]-L-prolinamide]: the MIC was no more than 32 µg/mL.

As to `N#Cc1cccc(C(=O)NC(=O)[C@@H]2CCCN2C(=O)[C@H](CC2CCCC2)CN(O)C=O)c1` [Example 14, N-[(3-cyanophenyl)carbonyl]-1-((2R)-3-cyclopentyl-2-{[formyl(hydroxy)amino]methyl}propanoyl)-L-prolinamide], the MIC was no more than 32 µg/mL.

`O=CN(O)C[C@@H](CC1CCCC1)C(=O)N1CCC[C@H]1C(=O)NC(=O)c1ccccc1` [Example 3, 1-((2R)-3-cyclopentyl-2-{[formyl(hydroxy)amino]methyl}propanoyl)-N-(phenylcarbonyl)-L-prolinamide]: the MIC is no more than 32 µg/mL.

As for `Cc1ccc(C(=O)NC(=O)[C@@H]2CCCN2C(=O)[C@H](CC2CCCC2)CN(O)C=O)cc1F` [Example 12], the MIC is no more than 32 µg/mL.

For the compound `O=CN(O)C[C@@H](CC1CCCC1)C(=O)N1CCC[C@H]1C(=O)NC(=O)c1ccncc1` [Example 17, N-[1-((2R)-3-cyclopentyl-2-{[formyl(hydroxy)amino]methyl}propanoyl)-L-prolyl]-4-pyridinecarboxamide], the MIC is no more than 32 µg/mL.

As for `CC(=O)NC(=O)[C@@H]1CCCN1C(=O)[C@H](CC1CCCC1)CN(O)C=O` [Example 2, N-acetyl-1-((2R)-3-cyclopentyl-2-{[formyl(hydroxy)amino]methyl}propanoyl)-L-prolinamide], the MIC is no more than 32 µg/mL.

`Cc1cc(C(=O)NC(=O)[C@@H]2CCCN2C(=O)[C@H](CC2CCCC2)CN(O)C=O)n(C)n1` [Example 8, 1-((2R)-3-cyclopentyl-2-{[formyl(hydroxy)amino]methyl}propanoyl)-N-[(1,3-dimethyl-1H-pyrazol-5-yl)carbonyl]-L-prolinamide]: the MIC was no more than 32 µg/mL.

As for `N[C@H]1CC[C@H](OC(=O)NC(=O)[C@@H]2CCCN2C(=O)[C@H](CC2CCCC2)CN(O)C=O)CC1` [Example 19, N-{[(trans-4-aminocyclohexyl)oxy]carbonyl}-1-((2R)-3-cyclopentyl-2-{[formyl(hydroxy)amino]methyl}propanoyl)-L-prolinamide], the MIC was no more than 32 µg/mL.

For `O=CN(O)C[C@@H](CC1CCCC1)C(=O)N1CCC[C@H]1C(=O)NC(=O)c1c(F)cccc1F` [Example 18, 1-((2R)-3-cyclopentyl-2-{[formyl(hydroxy)amino]methyl}propanoyl)-N-[(2,6-difluorophenyl)carbonyl]-L-prolinamide], the MIC is no more than 32 µg/mL.

Take `COCC(=O)NC(=O)[C@@H]1CCCN1C(=O)[C@H](CC1CCCC1)CN(O)C=O` [Example 5, 1-((2R)-3-cyclopentyl-2-{[formyl(hydroxy)amino]methyl}propanoyl)-N-[(methyloxy)acetyl]-L-prolinamide]: the MIC is no more than 32 µg/mL.

With `O=CN(O)C[C@@H](CC1CCCC1)C(=O)N1CCC[C@H]1C(=O)NC(=O)c1ccc(F)cc1` [Example 1, 1-((2R)-3-cyclopentyl-2-{[formyl(hydroxy)amino]methyl}propanoyl)-N-[(4-fluorophenyl)carbonyl]-L-prolinamide], the MIC was no more than 32 µg/mL.

Turning to `Cc1cc(C(=O)NC(=O)[C@@H]2CCCN2C(=O)[C@H](CC2CCCC2)CN(O)C=O)no1` [Example 9, 1-((2R)-3-cyclopentyl-2-{[formyl(hydroxy)amino]methyl}propanoyl)-N-[(5-methyl-3-isoxazolyl)carbonyl]-L-prolinamide], the MIC is no more than 32 µg/mL.

Take `O=CN(O)C[C@@H](CC1CCCC1)C(=O)N1CCC[C@H]1C(=O)NC(=O)c1ccc(C(F)(F)F)nc1` [Example 6, N-[1-((2R)-3-cyclopentyl-2-{[formyl(hydroxy)amino]methyl}propanoyl)-L-prolyl]-6-(trifluoromethyl)-3-pyridinecarboxamide]: the MIC was no more than 32 µg/mL.
